Reference: PMC12775434, “Ultra-large virtual screening unveils potent agonists of the neuromodulatory orphan receptor GPR139” (Nature Communications, 2025)
Values joined by “and” are separate entries in the source; they are usually repeats but may differ in a detail not shown here. Identical values can stand only once.

Assays:
Format in all cases: cell-based
GPR139 (Gi2 activation) = biological target: T1, GPR139 (Gi2 activation) (Homo sapiens, UniProt Q6DWJ6); test: BRET G protein activation (dissociation) assay, Gi2, HEK293A; conditions: for G protein activation, Gi2: individual replicates
T1 construct: expressed in transfected cells; host or cells: HEK293A (transient, Lipofectamine 2000)
T1 sequence (Q6DWJ6 1-353): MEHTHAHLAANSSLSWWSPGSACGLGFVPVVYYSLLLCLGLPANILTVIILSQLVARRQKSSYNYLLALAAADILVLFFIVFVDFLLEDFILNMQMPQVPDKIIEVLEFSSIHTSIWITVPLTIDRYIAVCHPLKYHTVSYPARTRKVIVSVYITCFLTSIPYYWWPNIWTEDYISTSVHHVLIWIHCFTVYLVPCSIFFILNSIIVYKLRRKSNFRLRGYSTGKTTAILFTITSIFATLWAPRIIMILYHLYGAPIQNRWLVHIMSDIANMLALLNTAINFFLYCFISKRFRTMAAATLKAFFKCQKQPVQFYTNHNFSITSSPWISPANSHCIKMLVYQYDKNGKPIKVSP
Protocol: (§1) Primary screening and pharmacological characterization of compounds were performed using a CHO-K1 cell line that stably expresses human GPR139 (GPR139-CHOk1). The GPR139-CHOk1 cell line was kindly provided by H. Lundbeck A/S, Denmark[24]. GPR139-CHOk1 cells were grown in Ham’s F-12 Kaighn’s Modification Medium (ThermoFisher #21127030) supplemented with 10% dialyzed fetal bovine serum (US origin, ThermoFisher #26400044), 100 units/mL Penicillin-Streptomycin (ThermoFisher #15140122), and 1 mg/mL Geneticin (ThermoFisher #11811031). […] M1R-CHOk1 cells were purchased from The Missouri S&T cDNA Resource Center (#CEM100TN00). M1R-CHOk1 cells were grown in Ham’s F12 Medium (ThermoFisher #21765029) supplemented with 10% fetal bovine serum (Brazilian origin, ThermoFisher #10270106), 100 units/mL Penicillin-Streptomycin, and 0.25 mg/mL Geneticin. HEK293A cells transiently transfected with GPR139 were used for additional pharmacological assessment of signaling pathways activated by GPR139. HEK239A cells were generously provided by Dr. Asuka Inoue, Tohoku University, Japan. HEK293A cells were grown in Dulbecco’s Modified Eagle Medium (ThermoFisher #31966047) supplemented with 10% dialyzed fetal bovine serum and 100 units/mL Penicillin-Streptomycin. Cell lines were maintained at 37 °C in humidified incubator equilibrated with 5% CO2.
(§2) The G protein dissociation assay developed by the lab of Kirill A. Martemyanov was used to measure the coupling of multiple G proteins by GPR139[57]. The assay was performed as described previously with minor modifications. HEK293A cells were reverse transfected 20–24 h prior to assay. 50,000 cells were plated in each well of white opaque tissue culture treated 96-well plates (PerkinElmer #6005680) previously coated with poly-D-lysine. Transfection solutions were prepared as described, and 10 µL transfection solution was mixed with 100 µL cells in each well. The cells in each well were transfected with 18.9 ng GPR139, 6.3 ng Venus 1-155 Gγ2, 6.3 ng Venus 159-239 Gβ1, 6.3 ng masGRK3ct-NanoLuc and 12.6 ng Gαi2, 12.6 ng Gαi3, 12.6 ng GαoA, 12.6 ng Gαq or 25.2 ng Gα12 using 375 nL Lipofectamine 2000 Transfection Reagent. Transfections with Gαq and Gα12 contained 6.3 ng DNA of the active subunit S1 of pertussis toxin (PTX-S1). Each transfection was normalized to 150 ng total DNA with pcDNA3.1. The BRET biosensors were a kind gift from the Martemyanov lab. On the day of the experiment the cells were washed with HEPES buffer. Test compounds were diluted in HEPES buffer from DMSO stocks (final DMSO concentration of maximally 0.3%). NanoLuc Luciferase substrate NanoGlo—furimazine (Promega #N1120) was diluted 1000-fold (final) in HEPES buffer. NanoGlo and test compounds were added, and measurements were performed after 10 s for Gi3, 15 s for Gi2 and GoA, 20 s for Gq, and 90 s for G12—the timepoint where maximal signal occurred with each G protein, ensuring proper determination of the potency for the G protein coupling. Simultaneous dual emission was measured at 535 nm and 475 nm on LUMIstar Omega Microplate Reader (BMG Labtech) at room temperature. The BRET ratio of 535 nm/475 nm (Venus/NanoLuc), reflecting the dissociation of the G protein heterotrimer, was used to determine the G protein activation. The basal BRET ratio obtained with buffer condition was subtracted from the absolute BRET ratio at a given test compound concentration, and the responses were normalized to the one obtained with 10 µM JNJ-63533054 for the activation of Gi2.
(§3) Pharmacological data and statistical analyses were performed in GraphPad Prism v9–10 (Graphpad Software Inc., San Diego, CA), which are also specifically described in the figure and table legends. […]

GPR139 (Gq activation) = biological target: T2, GPR139 (Gq activation) (Homo sapiens, UniProt Q6DWJ6); test: BRET G protein activation (dissociation) assay, Gq, HEK293A; conditions: for G protein activation, Gq: individual replicates
T2 construct: expressed in transfected cells; host or cells: HEK293A (transient, Lipofectamine 2000)
T2 sequence (Q6DWJ6 1-353): T1 sequence (Q6DWJ6 1-353)
Protocol: as §1, §2, §3

GPR139 (G12 activation) = biological target: T3, GPR139 (G12 activation) (Homo sapiens, UniProt Q6DWJ6); test: BRET G protein activation (dissociation) assay, G12, HEK293A; conditions: for G protein activation, G12: individual replicates
T3 construct: expressed in transfected cells; host or cells: HEK293A (transient, Lipofectamine 2000)
T3 sequence (Q6DWJ6 1-353): T1 sequence (Q6DWJ6 1-353)
Protocol: as §1, §2, §3

[1] = HEK293-A, normalized to JNJ-63533054 (JNJ(S))

Cc1cscc1-c1nc(CC(=O)N[C@H](C)c2ccccc2)no1 [1.1(R)]
Emax (GPR139 (Gi2 activation); [1]): 88 ± 11%
EC50 (GPR139 (Gi2 activation); Supplementary Table 6, read-out: pEC50 Gi2 (converted)): 794 nM
G protein activation, Gi2 (GPR139 (Gi2 activation); log [compound] M -4.5): 74 % of JNJ-63533054 at Gi2 and 72 % of JNJ-63533054 at Gi2 and 95 % of JNJ-63533054 at Gi2
G protein activation, Gi2 (GPR139 (Gi2 activation); log [compound] M -5.0): 74 % of JNJ-63533054 at Gi2 and 67 % of JNJ-63533054 at Gi2 and 91 % of JNJ-63533054 at Gi2
G protein activation, Gi2 (GPR139 (Gi2 activation); log [compound] M -5.5): 63 % of JNJ-63533054 at Gi2 and 47 % of JNJ-63533054 at Gi2 and 77 % of JNJ-63533054 at Gi2
G protein activation, Gi2 (GPR139 (Gi2 activation); log [compound] M -6.0): 51 % of JNJ-63533054 at Gi2 and 35 % of JNJ-63533054 at Gi2 and 64 % of JNJ-63533054 at Gi2
G protein activation, Gi2 (GPR139 (Gi2 activation); log [compound] M -6.5): 30 % of JNJ-63533054 at Gi2 and 18 % of JNJ-63533054 at Gi2 and 40 % of JNJ-63533054 at Gi2
G protein activation, Gi2 (GPR139 (Gi2 activation); log [compound] M -7.0): 9 % of JNJ-63533054 at Gi2 and 1.06 % of JNJ-63533054 at Gi2 and 24 % of JNJ-63533054 at Gi2
G protein activation, Gi2 (GPR139 (Gi2 activation); log [compound] M -7.5): 6 % of JNJ-63533054 at Gi2 and -1.09 % of JNJ-63533054 at Gi2 and 22 % of JNJ-63533054 at Gi2
G protein activation, Gi2 (GPR139 (Gi2 activation); log [compound] M -8.0): -2.65 % of JNJ-63533054 at Gi2 and -5 % of JNJ-63533054 at Gi2 and 18 % of JNJ-63533054 at Gi2
Emax (GPR139 (Gq activation); [1]): 21 ± 3%
EC50 (GPR139 (Gq activation); Supplementary Table 6): 2510 nM
G protein activation, Gq (GPR139 (Gq activation); log [compound] M -4.5): 17 % of JNJ-63533054 at Gi2 (2×) and 25 % of JNJ-63533054 at Gi2
G protein activation, Gq (GPR139 (Gq activation); log [compound] M -5.0): 16 % of JNJ-63533054 at Gi2 and 21 % of JNJ-63533054 at Gi2 and 15 % of JNJ-63533054 at Gi2
G protein activation, Gq (GPR139 (Gq activation); log [compound] M -5.5): 10 % of JNJ-63533054 at Gi2 and 12 % of JNJ-63533054 at Gi2 (2×)
G protein activation, Gq (GPR139 (Gq activation); log [compound] M -6.0): 4.28 % of JNJ-63533054 at Gi2 and 5.63 % of JNJ-63533054 at Gi2 and 5 % of JNJ-63533054 at Gi2
G protein activation, Gq (GPR139 (Gq activation); log [compound] M -6.5): 0.0563 % of JNJ-63533054 at Gi2 and -0.806 % of JNJ-63533054 at Gi2 and 0.934 % of JNJ-63533054 at Gi2
G protein activation, Gq (GPR139 (Gq activation); log [compound] M -7.0): -1.52 % of JNJ-63533054 at Gi2 and -1.69 % of JNJ-63533054 at Gi2 and -0.279 % of JNJ-63533054 at Gi2
G protein activation, Gq (GPR139 (Gq activation); log [compound] M -7.5): -0.908 % of JNJ-63533054 at Gi2 and -3 % of JNJ-63533054 at Gi2 and -0.0719 % of JNJ-63533054 at Gi2
G protein activation, Gq (GPR139 (Gq activation); log [compound] M -8.0): -5.54 % of JNJ-63533054 at Gi2 and -3 % of JNJ-63533054 at Gi2 and 1.13 % of JNJ-63533054 at Gi2
Emax (GPR139 (G12 activation); [1]): 51 ± 4%
EC50 (GPR139 (G12 activation); Supplementary Table 6, read-out: pEC50 G12 (converted)): 794 nM
G protein activation, G12 (GPR139 (G12 activation); log [compound] M -4.5): 43 % of JNJ-63533054 at Gi2 and 44 % of JNJ-63533054 at Gi2 and 51 % of JNJ-63533054 at Gi2
G protein activation, G12 (GPR139 (G12 activation); log [compound] M -5.0): 42 % of JNJ-63533054 at Gi2 and 36 % of JNJ-63533054 at Gi2 and 51 % of JNJ-63533054 at Gi2
G protein activation, G12 (GPR139 (G12 activation); log [compound] M -5.5): 35 % of JNJ-63533054 at Gi2 and 29 % of JNJ-63533054 at Gi2 and 39 % of JNJ-63533054 at Gi2
G protein activation, G12 (GPR139 (G12 activation); log [compound] M -6.0): 31 % of JNJ-63533054 at Gi2 and 23 % of JNJ-63533054 at Gi2 and 34 % of JNJ-63533054 at Gi2
G protein activation, G12 (GPR139 (G12 activation); log [compound] M -6.5): 19 % of JNJ-63533054 at Gi2 and 12 % of JNJ-63533054 at Gi2 and 22 % of JNJ-63533054 at Gi2
G protein activation, G12 (GPR139 (G12 activation); log [compound] M -7.0): 6 % of JNJ-63533054 at Gi2 and 6.57 % of JNJ-63533054 at Gi2 and 15 % of JNJ-63533054 at Gi2
G protein activation, G12 (GPR139 (G12 activation); log [compound] M -7.5): 3 % of JNJ-63533054 at Gi2 and 4 % of JNJ-63533054 at Gi2 and 9 % of JNJ-63533054 at Gi2
G protein activation, G12 (GPR139 (G12 activation); log [compound] M -8.0): -4.59 % of JNJ-63533054 at Gi2 and 2 % of JNJ-63533054 at Gi2 and 6 % of JNJ-63533054 at Gi2
